One may read the Kp as tissue or fluid exposure divided by exposure in the circulation.

Structures are written as SMILES. Several values for one entry are separate records, joined by “and”; a condition that tells them apart may be missing. Equal entries are not always repeated.

The values below come from article PMC12451337 (ESMO Open, 2025).

Data set [1] in a line: Pharmacokinetics in patients (plasma and tumor biopsy, LC-MS/MS).
Experimental: Blood was obtained from all patients and collected in anticoagulant tubes (K2-EDTA). Plasma samples were stored at −80°C until analysis (both drugs were validated as stable under these storage conditions). The PK analysis population included all patients who received at least one dose of AMXT 1501 and had at least one quantifiable AMXT 1501 plasma concentration postdose.
Data set [2] concerns polyamine transport in T cells. Description: Whole blood assay: uptake of fluorescently labeled spermine analog by activated T cells (flow cytometry). The data set is classed as cell-based, human. How it is done:
To evaluate the target engagement activity of AMXT 1501 after administration, an ex vivo pharmacodynamic assay assessing lymphocyte spermine uptake and inhibition of uptake by AMXT 1501 was developed.
The purpose of the whole blood assay is to quantify the inhibition of polyamine transport in T cells in human subjects receiving AMXT 1501. Whole blood collected from subjects receiving AMXT 1501 was diluted with serum-free media and stimulated with anti-CD3 and anti-CD28 to drive T-cell activation and proliferation for a total of 3 days. During the last 12-18 h of culture, a fluorescently labeled spermine analog (compound 5)[38] was added to the in vitro culture to monitor polyamine uptake into cells. The functional activity (inhibitory effect) of AMXT 1501 on compound 5 uptake by T cells is then determined using flow cytometry by measuring the frequency and mean fluorescence intensity of compound 5+ T cells. Comparisons were made between the uptake in the pretreatment sample and samples taken over time postdose.
An ex vivo blood-based pharmacodynamic assay was developed to measure the inhibition of uptake of a fluorescently labeled polyamine analog by AMXT 1501 into activated CD4+ lymphocytes in culture. Using a fluorescence-activating cell sorting system, tracking of the cellular uptake of the fluorescence of this labeled polyamine was followed after CD3/CD28 activation.

The next data set relates to tumor cells in culture. Description: Predicted ED95 against tumor cells in culture (nonclinical data). It counts as cell-based.
The subject of another data set is polyamine transport. The arrangement: method as in PMID 19281226. The note with it: without crossing the cell membrane; cited from earlier work.
A short description of another data set: clinical. The following applies: human, oral.
The subject of data set [3] is patients with advanced solid tumors. Description: Phase I dose-escalation trial: safety and tolerability (TEAEs, DLTs, MTD, RP2D). The method, then: The study was carried out in compliance with the International Council for Harmonisation Good Clinical Practices, including the ethical principles of the Declaration of Helsinki. All patients provided signed informed consent before any study-specific procedures were carried out.
For determination of dose escalation, all toxicities, all available PK, and other relevant patient data occurring during the first cycle were considered. In addition, safety in patients ongoing in repeat cycles at lower doses was also taken into consideration by the Cohort Review Committee (CRC; consisting of investigators and the medical monitor), when making dose-escalation decisions. The determination of RP2D included the assessment of acute and chronic toxicities and tolerability (missing doses, dose reductions, etc.) and was informed by the experience of the totality of data. The maximum tolerated dose (MTD) was defined as the highest dose level at which one or fewer of six patients experienced dose-limiting toxicities (DLTs). […] A dose reduction at or after cycle 2 was granted in accordance with dose modification guidelines if, in the opinion of the investigator, a dose reduction was in the best interest of the patient.
Safety was monitored throughout the study.

The mark [4] stands for this setting: whole human blood samples treated with 0-2000 nM AMXT 1501, absence of DFMO.

Turning to `NCCCC(N)(C(=O)O)C(F)F` (centres unmarked) [DFMO, difluoromethylornithine, reference compound], in data set [1] (between the 500 and 1000 mg/day dose levels), the “DFMO exposure versus dose” value is “approximately dose-proportional”. In data set [1] (human, in vivo), the “Change in DFMO exposure with repeat dosing” value was “no substantial change” and the “Effect of AMXT 1501 dose level on DFMO exposure” value is “no apparent effect”. In addition, the “Achievement of predicted DFMO ED95 concentration (100 μM) by oral delivery” value in data set [1] (in combination with AMXT 1501) is recorded as “unable to achieve this level”. Also, in data set [2] (addition to the culture), the “Effect of DFMO addition on uptake of the fluorescent marker” value was “increased the uptake of the fluorescent marker”. Further, the “predicted ED95 concentration” value in the data set on tumor cells in culture is 100 μM and 18 200 ng/ml.
For the compound `CCCCCCCCCCCCCCCC(=O)NCCCC[C@@H](N)C(=O)NCCCNCCCCNCCCN` [AMXT 1501, AMXT 1501 dicaprate], in data set [1] (human, in vivo), the “AMXT 1501 exposure based on mean Cmax versus dose” value is given as “near dose-proportional”, the “Accumulation of AMXT 1501 after repeat dosing” value is recorded as “up to 10 fold”, the “Effect of DFMO administration on AMXT 1501 exposure” value is on record as “no consistent effect” and the “Predose AMXT 1501 plasma concentration” value was determined as 296 ng/mL. Also, the “AMXT 1501 steady state obtained by” value in data set [1] (human, in vivo, po) is “cycle 1 day 14”. The “Blocks cellular uptake of spermidine” value in the data set with polyamine transport is reported as “nanomolar range”. This compound also displayed a concentration ratio (Kp) in “clinical” (tumor biopsy / plasma) of 12. Moreover, in “clinical” (tumor biopsy), the concentration at 30 days of treatment was 3480 ng/mL and 6.12 µM. For the same compound, the “Inhibition of fluorescent marker transport with DFMO added to the culture” value in data set [2] (DFMO added to the culture) was “still able to potently inhibit this transport”. In addition, the “Target engagement in samples taken over time following dosing versus pretreatment” value in data set [2] (ex vivo, patients' blood after oral dosing) was “sustained AMXT 1501 target engagement activity”. In data set [2] (setting [4]), the “Concentration of maximal fluorescent-labeled spermine uptake inhibition” value is reported as 250 nM and the “half maximum inhibitory concentration (ED50)” value was approximately 0.075 µM. For the same compound, in the data set with tumor cells in culture (in combination with DFMO, nonclinical data), the “predicted effective dose 95% (ED95)” value is 0.1 µM. In addition, in data set [3] (human, in vivo), the “AMXT 1501 dose relationship with proportions of patients with TEAEs, treatment-related TEAEs or SAEs, discontinuation, dose interruption” value was “no strong evidence for any AMXT 1501 dose relationship”. Moreover, the “RP2D of AMXT 1501 in the combination” value in data set [3] (in combination with DFMO 500 mg b.i.d.) was found to be 600 mg b.i.d. Also, the MTD in data set [3] (part 1, when given with DFMO 250 mg b.i.d.) is reported as 1800 mg o.d. The “Part 1 AMXT 1501 recommended phase II dose (RP2D)” value in data set [3] (part 1, with DFMO 250 mg b.i.d.) is recorded as 1800 mg o.d.
